Assay results published in patent US5925549A, “Soluble 7-transmembrane domain G-protein-coupled receptor compositions and methods” (The Board of Trustees of the Leland Stanford Junior …, priority 1997, dated 1999).

Assays:
[1] = system: rat testis cells; experiment: Testis cell apoptosis, DNA fragmentation by 3' end-labeling and in situ analysis (Apotag kit); type: in vivo; conditions: immature male rats; GnRH antagonist 50 μg/rat; 2 days; FIG. 5C; comparable to FBP-treated group
Protocol: (§1) Two days after the initial injection, the testis were weighed and testis cell apoptosis was quantitated using a 3' end-labeling method (Tapanainen,et al., 1993). The effects of FBP were also assayed using in situ analysis of specific cell types undergoing apoptosis with the "APOTAG" kit (Oncor, Gaithersburg, Md.) as previously described (Billig, et al., 1995).
(§2) Some animals were treated with a potent gonadotropin releasing hormone (GnRH) antagonist (Org30850: Acetyl-D-parachloro-Phe (AcDpCl-Phe), D-parachloro-Phe (DpCl-Phe), D-Bal, DLys, DAla-amide; (AcDpCl)Phe1 - (DpCl)Phe2 - D-Bal3 - DLys6 -DAla10(amide) (SEQ ID NO:5; D refers to D (not L) amino acids); 50 μg/rat, FIG. 5C (ANT); Decker, et al., 1992) to suppress pituitary release of LH and FSH (Decker, et al., 1992) whereas others were treated with conditioned media of SF9 cells infected with wild type baculovirus. In situ analysis of specific cell types undergoing apoptosis was performed using Apotag kit (Oncor, Gaithersburg, MD) as previously described (Billig, et al., 1995). Animal care was in accordance with institutional guidelines.

[2] = system: immature male rats (testis growth); experiment: Testis weight in immature male rats after 2 days of treatment; type: in vivo; conditions: 21 days of age, GnRH antagonist 50 μg/rat, testes weighed two days after initial injection, untreated 192±28 mg
Protocol: Immature male rats (21 days of age, weighing between about 45 and 50 g) were injected subcutaneously (s.c.) every 6h for a period of 2 days with 1 ml conditioned media of SF9 cells (10^8 cells equivalent/injection) containing solubilized FSH receptor fragments prepared as described above. The concentration of soluble receptor protein in the injection volume was between about 30 and 100 μg/ml. The effective dose administered every 6 hours was therefore between […].
as §1
as §2, with “In situ analysis of specific cell types undergoing apoptosis was performed using Apotag kit (Oncor, Gaithersburg, MD) as previously described (Billig, et al., 1995). Animal care was in accordance with institutional guidelines.” left out

## Acetyl-D-parachloro-Phe (AcDpCl-Phe), D-parachloro-Phe (DpCl-Phe), D-Bal, DLys, DAla-amide; (AcDpCl)Phe1 - (DpCl)Phe2 - D-Bal3 - DLys6 -DAla10(amide) [ANT]
[1]
  apoptotic DNA fragmentation in testis cells: increases in apoptotic DNA fragmentation
[2]
  testis weight: 140 ± 18 mg
